Here are results for 26 compounds from ChEMBL document CHEMBL1201862, “PubChem BioAssay data set” (2004).

Active and inactive are the calls of the source. A value given as a limit tells only on which side of the number the result lay.

A short description of assay [1]: cytotoxicity toward NIH3T3 fibroblasts, dose response, counter-screen, cell-based, ATP luminescence, mouse fibroblasts (AID 2010).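 Note: cells exposed to compound for about 90 hours before reading.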 It is filed as functional.
Assay [2] in a line: inhibitors of intracellular T. cruzi replication, confirmation, NIH3T3 host cells, beta-gal luminescence (AID 2044).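 Note: intracellular parasites grown in NIH/3T3 mouse fibroblasts as host cells; luminescent beta-galactosidase reporter signal from transgenic T. cruzi replicating inside host cells; inhibitors lower the luminescence signal.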 The class given is functional, cell-based.
Assay [3] can be described thus: cytotoxicity in HEK-293T cells, dose response, cytotoxicity control for TCR NF-kB inhibitor project, luminescence, T-cell screen hits (AID 489026).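 Note: cells exposed to compound about 14 hours before the viability readout.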 It is filed as functional, cell-based.
The target in a further assay is Cytochrome P450 3A4 (Homo sapiens, UniProt P08684). As to conditions: Potency.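 Note: confirmatory qHTS run detecting inhibitors and substrates of CYP3A4.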
A short description of assay [4]: A cytotoxicity screen of small molecule inhibitors of the PhoP region in Salmonella typhi identified in the primary screen. [Related pubchem assays: 1850, 1864, 1985 ]. It is filed as functional.
The target in assay [5] is T1, E3 ubiquitin-protein ligase XIAP (Homo sapiens, UniProt P98170). As to the kind of experiment: XIAP antagonists, biochemical, IAP family, fluorescence polarization (AID 1018). It is filed as functional.
The target of assay [6] is T1, E3 ubiquitin-protein ligase XIAP. Kind of assay: Counter Screen using XIAP-Bir3 for Chemical Antagonists of Bir1/2 domains of IAP-family anti-apoptotic proteins. [Related pubchem assays (depositor defined):AID1018, AID1449, AID1514, AID1638, AID1749, AID1750, AID488957, AID488963]. In general terms: The purpose of a counterscreen is to sort out artefacts and off-target activity.

Assay [7] has as its target Dual specificity tyrosine-phosphorylation-regulated kinase 1A (Rattus norvegicus, UniProt Q63470). It is filed as biochemical, Homo sapiens.
Assay [8] has as its target FAD-linked sulfhydryl oxidase ALR (Homo sapiens, UniProt P55789). Kind of assay: inhibitors of human ALR sulfhydryl oxidase, dose response, biochemical, H2O2 detection, luminescence, cherry-pick (AID 493248).
Assay [9] has as its target Glyceraldehyde-3-phosphate dehydrogenase (Homo sapiens, UniProt P04406).
Assay [10] addresses Glucose-6-phosphate 1-dehydrogenase (Homo sapiens, UniProt P11413). Kind of assay: human G6PD enzyme inhibitors, dose response, selectivity assay for P. falciparum G6PD inhibitor project, biochemical, fluorescence (AID 504792). It is filed as functional.
Assay [11] has as its target DNA dC->dU-editing enzyme APOBEC-3G (Homo sapiens, UniProt Q9HC16). As to the kind of experiment: Dose Response confirmation of small molecule APOBEC3G DNA Deaminase Inhibitors via a fluorescence-based single-stranded DNA deaminase assay. [Related pubchem assays (depositor defined):AID493012, AID493028]. It is filed as functional.
The target of the next assay is Prothrombin (Homo sapiens, UniProt P00734). Kind of assay: Thrombin 1536 HTS Dose Response Confirmation. [Related pubchem assays: 1046 (Thrombin 1536 HTS; hits were confirmed in this assay)]. The class given is functional.
The target in another assay is T2, Protein RecA (Mycobacterium tuberculosis, UniProt P9WHJ3).
T2 sequence (P9WHJ3 whole entry): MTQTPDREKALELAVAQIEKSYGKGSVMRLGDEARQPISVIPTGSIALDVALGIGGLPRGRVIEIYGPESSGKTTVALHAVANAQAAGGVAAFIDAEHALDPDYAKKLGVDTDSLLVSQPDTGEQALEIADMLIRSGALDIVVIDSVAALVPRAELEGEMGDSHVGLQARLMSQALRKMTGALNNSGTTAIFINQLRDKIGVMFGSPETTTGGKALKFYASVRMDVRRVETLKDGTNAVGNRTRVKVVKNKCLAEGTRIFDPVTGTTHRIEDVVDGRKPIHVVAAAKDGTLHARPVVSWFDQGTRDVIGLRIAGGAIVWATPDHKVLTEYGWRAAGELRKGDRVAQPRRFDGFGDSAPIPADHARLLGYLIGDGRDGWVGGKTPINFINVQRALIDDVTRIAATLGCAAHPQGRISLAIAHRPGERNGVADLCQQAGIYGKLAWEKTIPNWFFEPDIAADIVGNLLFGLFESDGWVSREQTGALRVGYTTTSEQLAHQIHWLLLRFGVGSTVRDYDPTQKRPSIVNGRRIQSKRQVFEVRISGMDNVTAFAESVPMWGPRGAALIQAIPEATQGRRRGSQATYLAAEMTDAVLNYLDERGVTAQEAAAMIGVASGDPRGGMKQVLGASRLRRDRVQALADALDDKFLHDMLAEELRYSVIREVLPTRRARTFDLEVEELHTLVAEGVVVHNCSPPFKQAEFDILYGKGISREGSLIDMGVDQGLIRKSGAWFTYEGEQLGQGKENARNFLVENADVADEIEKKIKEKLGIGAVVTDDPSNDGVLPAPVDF
Kind of assay: Fluorescence Cell-Free Homogeneous Dose Retest to Identify Inhibitors of RecA-Intein Splicing Activity. [Related pubchem assays (depositor defined):AID2097, AID2223, AID489010, AID492950]. It is filed as functional.

The target of assay [12] is T3, Replicative DNA helicase DnaB (Mycobacterium tuberculosis, UniProt P9WMR3).
T3 sequence (P9WMR3 whole entry): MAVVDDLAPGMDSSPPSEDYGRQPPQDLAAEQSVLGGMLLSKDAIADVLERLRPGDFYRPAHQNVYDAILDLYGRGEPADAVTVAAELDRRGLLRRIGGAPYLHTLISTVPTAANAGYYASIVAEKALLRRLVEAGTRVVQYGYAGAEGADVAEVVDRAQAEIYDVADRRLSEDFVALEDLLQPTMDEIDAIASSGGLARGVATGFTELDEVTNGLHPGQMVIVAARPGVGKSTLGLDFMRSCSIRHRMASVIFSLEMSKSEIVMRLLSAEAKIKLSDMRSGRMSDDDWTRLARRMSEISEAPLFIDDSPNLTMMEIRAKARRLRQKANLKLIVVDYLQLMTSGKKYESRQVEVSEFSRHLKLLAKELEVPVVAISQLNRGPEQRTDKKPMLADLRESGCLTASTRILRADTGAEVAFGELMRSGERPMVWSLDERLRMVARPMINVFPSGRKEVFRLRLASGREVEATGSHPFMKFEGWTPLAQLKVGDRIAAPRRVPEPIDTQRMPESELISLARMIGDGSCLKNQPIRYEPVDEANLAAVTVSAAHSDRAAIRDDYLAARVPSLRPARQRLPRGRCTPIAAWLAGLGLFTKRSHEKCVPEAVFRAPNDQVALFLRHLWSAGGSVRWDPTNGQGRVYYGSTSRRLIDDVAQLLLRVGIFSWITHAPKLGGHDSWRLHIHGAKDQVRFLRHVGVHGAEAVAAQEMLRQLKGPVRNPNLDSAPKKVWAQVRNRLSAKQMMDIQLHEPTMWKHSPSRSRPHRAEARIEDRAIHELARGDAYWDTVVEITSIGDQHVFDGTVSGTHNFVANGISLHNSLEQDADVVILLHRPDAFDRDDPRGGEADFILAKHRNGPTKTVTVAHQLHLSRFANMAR
As to the kind of experiment: DnaB intein splicing inhibitors, dose response, biochemical, cell-free fluorescence (AID 449749). It is filed as functional.

A short description of assay [13]: control 3'UTR Renilla luciferase suppression, dose response, counter-screen for Shn3 inhibitor project, cell-based, Clone20-Shn3RL, cherry-picked (AID 624133). It is filed as functional.
A short description of assay [14]: Shn3 3'UTR reporter inhibitors, dose response, cell-based, Clone20 osteoblasts, firefly luciferase, cherry-picked (AID 624132).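 Note: firefly luciferase luminescence from reporter carrying the Shn3 3'UTR in osteoblasts.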 The class given is functional.
The test system of another assay is H9c2. Kind of assay: cells. It is filed as functional, cell-based. As to conditions: Rattus norvegicus, H9c2, Myocardium.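 Note: confirmatory concentration-response retest of ultra-high-throughput screening hits for modulation of myocardial damage; cell death induced by hydrogen peroxide oxidative stress; compound pretreatment for 60 min then peroxide exposure for 2 h; potency is for protecting the cells against peroxide damage rather than for killing them.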

One may read the EC50 as the concentration needed to bring the measured effect to its halfway point. The term IC50 denotes the concentration that gives 50% inhibition. For orientation: AC50 means the midpoint of the concentration-response curve, whichever way the signal moves.

T1 sequence (P98170 whole entry): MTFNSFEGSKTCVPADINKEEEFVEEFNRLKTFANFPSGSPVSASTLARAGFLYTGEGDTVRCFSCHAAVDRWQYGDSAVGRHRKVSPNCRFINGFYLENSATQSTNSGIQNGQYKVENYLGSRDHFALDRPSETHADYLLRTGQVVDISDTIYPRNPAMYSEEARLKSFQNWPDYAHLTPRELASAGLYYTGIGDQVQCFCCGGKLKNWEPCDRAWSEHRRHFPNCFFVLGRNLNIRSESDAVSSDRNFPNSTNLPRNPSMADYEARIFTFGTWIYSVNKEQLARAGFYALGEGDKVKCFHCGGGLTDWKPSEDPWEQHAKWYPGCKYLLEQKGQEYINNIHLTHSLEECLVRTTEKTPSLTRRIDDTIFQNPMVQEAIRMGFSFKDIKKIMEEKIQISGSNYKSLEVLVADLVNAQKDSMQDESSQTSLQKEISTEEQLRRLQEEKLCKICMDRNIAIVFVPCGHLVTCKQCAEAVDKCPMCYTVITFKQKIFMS
Chain of Cytochrome P450 3A4 (P08684 whole entry): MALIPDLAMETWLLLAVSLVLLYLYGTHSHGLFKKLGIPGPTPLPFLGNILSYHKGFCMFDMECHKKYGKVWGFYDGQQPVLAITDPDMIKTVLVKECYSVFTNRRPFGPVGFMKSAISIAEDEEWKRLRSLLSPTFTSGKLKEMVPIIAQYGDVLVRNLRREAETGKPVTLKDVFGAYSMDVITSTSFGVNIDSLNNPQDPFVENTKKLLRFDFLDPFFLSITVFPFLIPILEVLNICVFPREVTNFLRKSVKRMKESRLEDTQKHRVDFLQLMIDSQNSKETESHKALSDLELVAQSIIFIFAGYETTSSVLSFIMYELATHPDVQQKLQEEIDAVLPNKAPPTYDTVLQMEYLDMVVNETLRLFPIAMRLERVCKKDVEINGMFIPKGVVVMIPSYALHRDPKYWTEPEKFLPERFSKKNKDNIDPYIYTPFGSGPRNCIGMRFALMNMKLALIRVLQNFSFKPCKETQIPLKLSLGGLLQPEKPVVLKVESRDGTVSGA
Chain of Glucose-6-phosphate 1-dehydrogenase (P11413 whole entry): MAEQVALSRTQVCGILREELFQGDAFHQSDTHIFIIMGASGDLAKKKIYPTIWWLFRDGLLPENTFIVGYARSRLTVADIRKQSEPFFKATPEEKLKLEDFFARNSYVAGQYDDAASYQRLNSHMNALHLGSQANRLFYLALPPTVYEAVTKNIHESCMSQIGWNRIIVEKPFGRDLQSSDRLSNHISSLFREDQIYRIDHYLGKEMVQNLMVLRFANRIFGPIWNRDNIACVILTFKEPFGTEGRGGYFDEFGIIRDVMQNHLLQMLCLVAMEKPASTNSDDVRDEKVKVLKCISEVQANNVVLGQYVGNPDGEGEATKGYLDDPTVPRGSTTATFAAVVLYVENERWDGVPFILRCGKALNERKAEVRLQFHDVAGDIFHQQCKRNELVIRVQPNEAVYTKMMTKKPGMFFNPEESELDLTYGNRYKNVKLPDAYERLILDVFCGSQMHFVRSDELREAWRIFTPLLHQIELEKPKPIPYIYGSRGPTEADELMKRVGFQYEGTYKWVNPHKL
Chain of DNA dC->dU-editing enzyme APOBEC-3G (Q9HC16 whole entry): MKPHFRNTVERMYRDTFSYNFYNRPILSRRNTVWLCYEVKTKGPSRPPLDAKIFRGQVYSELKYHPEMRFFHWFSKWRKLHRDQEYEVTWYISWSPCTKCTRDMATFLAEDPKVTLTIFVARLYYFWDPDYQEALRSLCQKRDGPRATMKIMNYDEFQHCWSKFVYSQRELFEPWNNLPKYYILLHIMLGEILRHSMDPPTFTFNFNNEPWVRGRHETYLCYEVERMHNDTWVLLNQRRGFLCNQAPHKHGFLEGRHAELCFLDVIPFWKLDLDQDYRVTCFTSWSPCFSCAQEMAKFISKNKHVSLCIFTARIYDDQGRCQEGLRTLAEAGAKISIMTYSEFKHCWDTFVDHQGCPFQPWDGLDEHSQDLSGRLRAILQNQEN
Chain of FAD-linked sulfhydryl oxidase ALR (P55789 whole entry): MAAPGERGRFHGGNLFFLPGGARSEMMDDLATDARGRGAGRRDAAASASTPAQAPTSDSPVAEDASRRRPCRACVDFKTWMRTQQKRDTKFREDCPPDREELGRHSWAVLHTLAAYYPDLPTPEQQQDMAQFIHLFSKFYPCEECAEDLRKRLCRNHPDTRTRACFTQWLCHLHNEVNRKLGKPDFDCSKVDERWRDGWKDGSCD
Chain of Glyceraldehyde-3-phosphate dehydrogenase (P04406 whole entry): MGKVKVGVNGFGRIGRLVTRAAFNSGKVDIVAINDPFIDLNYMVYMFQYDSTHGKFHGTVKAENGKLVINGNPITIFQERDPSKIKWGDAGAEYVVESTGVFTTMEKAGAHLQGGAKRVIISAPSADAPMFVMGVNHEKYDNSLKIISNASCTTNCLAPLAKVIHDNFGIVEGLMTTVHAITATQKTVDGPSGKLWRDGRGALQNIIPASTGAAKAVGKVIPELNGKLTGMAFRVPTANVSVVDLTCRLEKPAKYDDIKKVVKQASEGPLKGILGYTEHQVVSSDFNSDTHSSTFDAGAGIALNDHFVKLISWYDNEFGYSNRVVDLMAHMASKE

As to `CCCCCCCOc1ccc(OC(=O)c2cccnc2)cc1`, the EC50 in assay [1] is 4.45 µM (active); in [2], 1.89 µM (active). Further, the IC50 in assay [3] was > 80 µM (inactive).
Consider `C=C(CC(=O)OC)C[C@]1(CC(=O)OC)CC2(CC=C(C)C)C(=O)C(C(=O)c3ccccc3)=C(OC(=O)c3ccc(Br)cc3)C(CC=C(C)C)(C1)C2=O` (stereo partly specified), for which, on Cytochrome P450 3A4, the AC50 was 3.16 µM (inconclusive).
On to `CCOC(=O)c1[nH]c2c(c1C)C(=O)CC(c1ccc(F)cc1)C2` (stereo unspecified), for which, in [3], the IC50 is > 80 µM (inactive).
For `O=C(/C=C/c1ccccc1Cl)Nc1cccc(O)c1`, in assay [4], the EC50 was > 50 µM (active).
Consider `CCOC(=O)CCc1c(C)c2ccc(O)cc2oc1=O`, for which the figures for the IC50 in assay [5] and in assay [6] were > 100 µM (not active) and > 100 µM (inactive), respectively.
With `CSc1cccc(NC(=O)c2c(Cl)cnn2C)c1`, the AC50 in [7] was 7.08 µM (active).
For the compound `Cc1ccc(S(=O)(=O)NNc2ccccc2)c(C)c1`, the EC50 in [4] was > 50 µM (active). The AC50 in assay [8] is 0.319 µM (active).
Turning to `Cc1c(O)c(O)cc2c1oc1c3ccccc3oc(=O)c21`, on Cytochrome P450 3A4, the AC50 was 20 µM (inconclusive).
In the case of `COc1ccc(-c2coc3ccc(OC4OC(COC(C)=O)C(OC(C)=O)C(OC(C)=O)C4OC(C)=O)c(OC(C)=O)c3c2=O)cc1` (stereo unspecified), the AC50 on Cytochrome P450 3A4 is 15.8 µM (inconclusive).
With `O=C(O)CSc1nc2ccc(Br)cc2o1`, the IC50 in assay [9] is on record as > 100 µM (not active).
`CCN(CC)C(=O)c1c(C)[nH]c(=S)c(C#N)c1-c1ccco1`: the IC50 in [10] is > 80 µM (inactive).
Turning to `S=C([S-])NCCNC(=S)[S-].[Zn+2]`, the AC50 on Cytochrome P450 3A4 was 25.1 µM (inconclusive).
Take `O=S1(=O)CC2N=C(N(Cc3c(F)cccc3Cl)c3ccccc3F)SC2C1` (stereo unspecified): the IC50 in [5] is > 100 µM (not active); in [6], > 100 µM (inactive).
Take `COc1ccc(C(=O)Nc2nc(-c3cccs3)c(NC(C)=O)s2)cc1`: the IC50 in assay [5] is > 100 µM (not active); in assay [6] it was > 100 µM (inactive).
In the case of `Cc1nc([N+](=O)[O-])c(SCc2ccc(O)c([N+](=O)[O-])c2)[nH]1`, the IC50 in assay [11] is 77.9 µM (active).
In the case of `CSc1nc(-c2ccccc2)nn1C(=O)c1ccc(Cl)cc1`, the IC50 on Prothrombin was 0.725 µM (active). Moreover, the EC50 at Protein RecA is 44.3 µM (active). In assay [12], the AC50 is 4.38 µM (active).
For the compound `O=C(Nc1cc2c3c(c1)C1CCCC1CN3CC1CCCC21)c1ccc([N+](=O)[O-])cc1` (stereo unspecified), the AC50 in assay [13] was 4.88 µM (active); in assay [14], 2.2 µM (active). In addition, the 50% effective concentration (EC50) in assay [1] was > 60 µM (inconclusive); in assay [2], 1.07 µM (active). In addition, the IC50 on Prothrombin is listed as > 50 µM (not active).
Consider `Cc1ccc(S(=O)(=O)N(C)C)cc1NC(=S)NC12CC3CC(CC(C3)C1)C2`, for which the values for the IC50 in assay [5] and in assay [6] were > 100 µM (not active) and > 100 µM (inactive), respectively.
For the compound `CCCn1c(C)nc2c(N3CCOCC3)nc(C)nc21`, the AC50 at Cytochrome P450 3A4 was 7.94 µM (inconclusive).
Take `CCOc1ccc(NC(=O)c2ccc(N)cc2)cc1`: the EC50 in [4] was > 50 µM (active).
Same read-out and setting: as for `Cc1cccn2c(=O)c3cc(C(=O)NCC4CCCO4)c(=N)n(C4CCCC4)c3nc12` (stereo unspecified), the figure is > 50 µM (active).
Turning to `O=C(Nc1cc(S(=O)(=O)N2CCOCC2)ccc1N1CCCCC1)c1cc(-c2ccccn2)nc2ccccc12`, the IC50 is > 79 µM (inactive) with H9c2 and 92.6 µM (active) in assay [11].
Turning to `O=[N+]([O-])c1ccc(O)c(/C=N/n2c(S)nnc2-c2ccccc2)c1`, the AC50 in [7] is 7.9 µM (active).
Turning to `Cc1cc(C)n(/N=C/c2cc([N+](=O)[O-])ccc2O)c(=O)c1`, in assay [4], the EC50 is > 50 µM (active).
For `CCn1/c(=N/c2ccc(N3CCOCC3)cc2)ccc2ccccc21`, the IC50 in [5] was > 100 µM (not active); in assay [6] it was > 100 µM (inactive).
As for `Cc1cc(C)nc(/N=C(\N)NCCc2ccccc2)n1`, in [10], the IC50 is > 80 µM (inactive).
